Patent publication US10590132B2, “Selective estrogen receptor down-regulators” (AstraZeneca AB, priority 2017, dated 2020)

Experiment: Human plasma protein binding (equilibrium dialysis)
Assay type: in vitro ADME
Conditions: dialysis 18 hours
Method: The automated equilibrium dialysis assay in human plasma uses the RED (Rapid Equilibrium Dialysis) Device and sample handling. The assay generally runs over two to three days including delivery of results. After dialysis for 18 hours, plasma and buffer samples are prepared for analysis by liquid chromatography and mass spectrometry. Samples are generally tested in singlicates and quantified by LC/MSMS by using a 7-point calibration curve in plasma. The compounds are pooled together in plasma pools up to 10 compounds. Three reference compounds are used in each run, Propranolol, Metoprolol and Warfarin. Warfarin is used as a control in each pool and Propranolol and Metoprolol are placed randomly in each run. An in-house Excel macro is used for preparation of files for the robot and the mass spectrometer and is also used for the calculations of fraction unbound (fu %) in plasma.

Compound | Human plasma protein binding (% free)
C[C@@H]1Cc2c([nH]c3ccccc23)[C@@H](c2c(F)ccc(OCCNCCCF)c2F)N1CC1(F)COC1 [Example 13, N-(2-(2,4-difluoro-3-((1R,3R)-2-((3-fluorooxetan-3-yl)methyl)-3-methyl-2,3,4,9-tetrahydro-1H-pyrido[3,4-b]indol-1-yl)phenoxy)ethyl)-3-fluoropropan-1-amine] | 3.5 % free
Cc1c(OCCNCCCF)ccc(F)c1[C@@H]1c2[nH]c3ccccc3c2C[C@@H](C)N1CCC#N [Example 87, 3-((1R,3R)-1-(6-fluoro-3-(2-((3-fluoropropyl)amino)ethoxy)-2-methylphenyl)-3-methyl-1,3,4,9-tetrahydro-2H-pyrido[3,4-b]indol-2-yl)propanenitrile] | 1.6 % free
C[C@@H]1Cc2c([nH]c3ccccc23)[C@@H](c2nccc(OCCNCCCF)c2F)N1CC(F)(F)CO [Example 97, 2,2-difluoro-3-((1S,3R)-1-(3-fluoro-4-(2-((3-fluoropropyl)amino)ethoxy)pyridin-2-yl)-3-methyl-1,3,4,9-tetrahydro-2H-pyrido[3,4-b]indol-2-yl)propan-1-ol] | 6.8 % free
C[C@@H]1Cc2c([nH]c3ccccc23)[C@@H](c2ccnc(OCCNCCCF)c2Cl)N1CC(F)(F)CO [Example 104, 3-((1R,3R)-1-(3-chloro-2-(2-((3-fluoropropyl)amino)ethoxy)pyridin-4-yl)-3-methyl-1,3,4,9-tetrahydro-2H-pyrido[3,4-b]indol-2-yl)-2,2-difluoropropan-1-ol] | 2.8 % free
C[C@@H]1Cc2c([nH]c3ccccc23)[C@@H](c2c(F)ccc(OCCN(C)CCCF)c2F)N1CC1(F)COC1 [Example 154, N-(2-(2,4-difluoro-3-((1R,3R)-2-((3-fluorooxetan-3-yl)methyl)-3-methyl-2,3,4,9-tetrahydro-1H-pyrido[3,4-b]indol-1-yl)phenoxy)ethyl)-3-fluoro-N-methylpropan-1-amine] | 2.7 % free
C[C@@H]1Cc2c([nH]c3cccc(F)c23)[C@@H](c2c(F)ccc(OCCNCCCF)c2F)N1CC(F)(F)CO [Example 62, 3-((1R,3R)-1-(2,6-difluoro-3-(2-((3-fluoropropyl)amino)ethoxy)phenyl)-5-fluoro-3-methyl-1,3,4,9-tetrahydro-2H-pyrido[3,4-b]indol-2-yl)-2,2-difluoropropan-1-ol] | 1.2 % free
Cc1c(NCCNCCCF)ccc(F)c1[C@@H]1c2[nH]c3ccccc3c2C[C@@H](C)N1C[C@H](C)C(=O)O [Example 135, (S)-3-((1R,3R)-1-(6-fluoro-3-((2-((3-fluoropropyl)amino)ethyl)amino)-2-methylphenyl)-3-methyl-1,3,4,9-tetrahydro-2H-pyrido[3,4-b]indol-2-yl)-2-methylpropanoic acid] | 32 % free
Cc1c(OCCNCCCF)ncnc1[C@@H]1c2[nH]c3ccccc3c2C[C@@H](C)N1CC(F)(F)CO [Example 115, 2,2-difluoro-3-((1S,3R)-1-(6-(2-((3-fluoropropyl)amino)ethoxy)-5-methylpyrimidin-4-yl)-3-methyl-1,3,4,9-tetrahydro-2H-pyrido[3,4-b]indol-2-yl)propan-1-ol] | 11 % free
C[C@@H]1Cc2c([nH]c3ccccc23)[C@@H](c2c(Cl)ccc(OCCNCCCF)c2F)N1CC(F)(F)F [Example 78, N-(2-(4-chloro-2-fluoro-3-((1R,3R)-3-methyl-2-(2,2,2-trifluoroethyl)-2,3,4,9-tetrahydro-1H-pyrido[3,4-b]indol-1-yl)phenoxy)ethyl)-3-fluoropropan-1-amine] | 0.21 % free
CC(CN1[C@H](c2c(Cl)ccc(OCCNCCCF)c2Cl)c2[nH]c3ccc(F)cc3c2C[C@H]1C)C(=O)O (single isomer, unassigned) [Example 130] | 7.8 % free
Cc1c(OCCNCCCF)ccnc1[C@@H]1c2[nH]c3ccccc3c2C[C@@H](C)N1CC(F)(F)CO [Example 96, 2,2-difluoro-3-((1S,3R)-1-(4-(2-((3-fluoropropyl)amino)ethoxy)-3-methylpyridin-2-yl)-3-methyl-1,3,4,9-tetrahydro-2H-pyrido[3,4-b]indol-2-yl)propan-1-ol] | 7.1 % free
Cc1c(N(C)CCN(C)CCCF)ccc(F)c1[C@@H]1c2[nH]c3ccccc3c2C[C@@H](C)N1C[C@H](C)C(=O)O [Example 147, (S)-3-((1R,3R)-1-(6-fluoro-3-((2-((3-fluoropropyl)(methyl)amino)ethyl)(methyl)amino)-2-methylphenyl)-3-methyl-1,3,4,9-tetrahydro-2H-pyrido[3,4-b]indol-2-yl)-2-methylpropanoic acid] | 19 % free
C[C@@H]1Cc2c([nH]c3ccc(F)cc23)[C@@H](c2c(F)cnc(OCCNCCCF)c2F)N1CC1(F)CC1 [Example 109, N-(2-((3,5-difluoro-4-((1R,3R)-6-fluoro-2-((1-fluorocyclopropyl)methyl)-3-methyl-2,3,4,9-tetrahydro-1H-pyrido[3,4-b]indol-1-yl)pyridin-2-yl)oxy)ethyl)-3-fluoropropan-1-amine] | 1.9 % free
C[C@@H]1Cc2c([nH]c3ccccc23)[C@@H](c2c(F)ccc(OCCNCCCF)c2Cl)N1CC(F)(F)CO [Example 85, 3-((1R,3R)-1-(2-chloro-6-fluoro-3-(2-((3-fluoropropyl)amino)ethoxy)phenyl)-3-methyl-1,3,4,9-tetrahydro-2H-pyrido[3,4-b]indol-2-yl)-2,2-difluoropropan-1-ol] | 1.0 % free
COc1ccc(OCCNCCCF)cc1[C@@H]1c2[nH]c3ccc(F)cc3c2C[C@@H](C)N1CC(F)(F)CO [Example 46, 2,2-difluoro-3-((1R,3R)-6-fluoro-1-(5-(2-((3-fluoropropyl)amino)ethoxy)-2-methoxyphenyl)-3-methyl-1,3,4,9-tetrahydro-2H-pyrido[3,4-b]indol-2-yl)propan-1-ol] | 2.4 % free
C[C@@H]1Cc2c([nH]c3ccc(F)cc23)[C@@H](c2c(F)ccc(OCCNCCCF)c2F)N1CC(F)(F)CO [Example 15, 3-((1R,3R)-1-(2,6-difluoro-3-(2-((3-fluoropropyl)amino)ethoxy)phenyl)-6-fluoro-3-methyl-1,3,4,9-tetrahydro-2H-pyrido[3,4-b]indol-2-yl)-2,2-difluoropropan-1-ol] | 3.2 % free
Cc1c(OCCNCCCF)ccc(F)c1[C@@H]1c2[nH]c3ccccc3c2C[C@@H](C)N1CC(F)(F)C(=O)O [Example 118, 2,2-difluoro-3-((1R,3R)-1-(6-fluoro-3-(2-((3-fluoropropyl)amino)ethoxy)-2-methylphenyl)-3-methyl-1,3,4,9-tetrahydro-2H-pyrido[3,4-b]indol-2-yl)propanoic acid] | 8.4 % free
C[C@@H]1Cc2c([nH]c3ccccc23)[C@@H](c2c(F)ccc(OCCN(C)CCCF)c2C(F)F)N1C[C@H](C)C(=O)O [Example 148, (S)-3-((1R,3R)-1-(2-(difluoromethyl)-6-fluoro-3-(2-((3-fluoropropyl)(methyl)amino)ethoxy)phenyl)-3-methyl-1,3,4,9-tetrahydro-2H-pyrido[3,4-b]indol-2-yl)-2-methylpropanoic acid] | 10 % free
COc1ccc(OCCNCCCF)cc1[C@@H]1c2[nH]c3ccccc3c2C[C@@H](C)N1CC(F)(F)F [Example 7, 3-Fluoro-N-(2-(4-methoxy-3-((1R,3R)-3-methyl-2-(2,2,2-trifluoroethyl)-2,3,4,9-tetrahydro-1H-pyrido[3,4-b]indol-1-yl)phenoxy)ethyl)propan-1-amine] | 1.5 % free
COc1ccc(OC[C@@H](C)NCCCF)cc1[C@@H]1c2[nH]c3ccccc3c2C[C@@H](C)N1CC(F)(F)CO [Example 50, 2,2-difluoro-3-((1R,3R)-1-(5-((R)-2-((3-fluoropropyl)amino)propoxy)-2-methoxyphenyl)-3-methyl-1,3,4,9-tetrahydro-2H-pyrido[3,4-b]indol-2-yl)propan-1-ol] | 7.1 % free
Cc1c(OCCN(C)CCCF)ccc(F)c1[C@@H]1c2[nH]c3ccccc3c2C[C@@H](C)N1CCC(=O)O [Example 163, 3-((1R,3R)-1-(6-fluoro-3-(2-((3-fluoropropyl)(methyl)amino)ethoxy)-2-methylphenyl)-3-methyl-1,3,4,9-tetrahydro-2H-pyrido[3,4-b]indol-2-yl)propanoic Acid] | 49 % free
COc1ccc(O[C@H](C)CNCCCF)cc1[C@@H]1c2[nH]c3ccccc3c2C[C@@H](C)N1CC(F)(F)CO [Example 47, 2,2-difluoro-3-((1R,3R)-1-(5-(((R)-1-((3-fluoropropyl)amino)propan-2-yl)oxy)-2-methoxyphenyl)-3-methyl-1,3,4,9-tetrahydro-2H-pyrido[3,4-b]indol-2-yl)propan-1-ol] | 6.1 % free
Cc1c(OCCN(C)CCCF)ncc(F)c1[C@@H]1c2[nH]c3ccccc3c2C[C@@H](C)N1C(C)CC(=O)O (single isomer, unassigned) [Example 159] | 13 % free
Cc1c(OCCNCCCF)cncc1[C@@H]1c2[nH]c3ccccc3c2C[C@@H](C)N1CC(F)(F)F [Example 38, 3-fluoro-N-(2-((4-methyl-5-((1R,3R)-3-methyl-2-(2,2,2-trifluoroethyl)-2,3,4,9-tetrahydro-1H-pyrido[3,4-b]indol-1-yl)pyridin-3-yl)oxy)ethyl)propan-1-amine] | 0.91 % free
COc1ccc(OCCNCCCF)c(C)c1[C@@H]1c2[nH]c3ccccc3c2C[C@@H](C)N1CC(F)(F)F [Example 26, 3-fluoro-N-(2-(4-methoxy-2-methyl-3-((1R,3R)-3-methyl-2-(2,2,2-trifluoroethyl)-2,3,4,9-tetrahydro-1H-pyrido[3,4-b]indol-1-yl)phenoxy)ethyl)propan-1-amine] | 0.22 % free
